{"source": "paper PMC3707081", "about": "“Hypothemicin, a fungal natural product, identifies therapeutic targets in Trypanosoma brucei” (eLife, 2013)", "target": "T1, TbCLK1 (Trypanosoma brucei, UniProt Q382U0)", "T1 construct": "gene Tb11.01.4230; full-length, recombinant from E. coli (pET100)", "T1 sequence (Q382U0 entry or part of it)": "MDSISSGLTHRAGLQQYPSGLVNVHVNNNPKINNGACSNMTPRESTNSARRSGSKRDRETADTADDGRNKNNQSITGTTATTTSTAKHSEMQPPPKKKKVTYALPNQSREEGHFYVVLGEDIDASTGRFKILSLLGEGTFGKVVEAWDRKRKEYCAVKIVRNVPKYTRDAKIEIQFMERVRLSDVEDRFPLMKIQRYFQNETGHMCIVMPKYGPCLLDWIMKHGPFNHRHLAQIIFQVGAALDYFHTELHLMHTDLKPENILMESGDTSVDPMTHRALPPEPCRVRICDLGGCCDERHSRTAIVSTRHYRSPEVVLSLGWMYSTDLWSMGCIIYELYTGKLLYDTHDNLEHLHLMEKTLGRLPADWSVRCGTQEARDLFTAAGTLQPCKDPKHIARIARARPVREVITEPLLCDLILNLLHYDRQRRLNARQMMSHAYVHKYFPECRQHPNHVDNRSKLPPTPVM", "assay": "in vitro kinase assay (γ-32P-ATP, myelin basic protein), […] min pre-incubation with […] ATP; also target engagement in intact parasites by competition with probe […]", "type": "biochemical", "note": "pIC50: −log10 of the molar value.", "data": [{"smiles": "COc1cc(O)c2c(c1)[C@H]1O[C@@H]1C[C@H](O)[C@H](O)C(=O)/C=C\\C[C@H](C)OC2=O", "note": "[compound 1, hypothemycin]", "values": [{"measurement": "pIC50", "value": 6.82}]}]}
